Laboratory results from ChEMBL document CHEMBL4152235, “Synthesis, anionophoric activity and apoptosis-inducing bioactivity of benzimidazolyl-based transmembrane anion transporters” (Eur J Med Chem, 2018).
The source made the active and inactive calls. No cut-off for these calls is given here.

Tests used:
[1] = Ionophoric activity across pyranine dye encapsulated pH 7 egg yolk L-alpha-phosphatidylcholine-based liposomal membranes assessed as iodide ion transport by measuring induction of pH discharge at 1.95 x 10^-3 mol% after 20 mins in presence of NaI loaded external vesicles by fluorescence method
[2] = Ionophoric activity across pyranine dye encapsulated pH 7 egg yolk L-alpha-phosphatidylcholine-based liposomal membranes assessed as chloride ion transport by measuring initial rate constant for induction of pH discharge at 3.91 x 10^-3 mol% after 20 mins in presence of NaCl loaded external vesicles by fluorescence method (reference value: 5.03 +/- 1.02 10^-3/min)
[3] = Ionophoric activity across pyranine dye encapsulated pH 7 egg yolk L-alpha-phosphatidylcholine-based liposomal membranes assessed as nitrate ion transport by measuring induction of pH discharge at 1.95 x 10^-3 mol% after 20 mins in presence of NaNO3 loaded external vesicles by fluorescence method
[4] = Ionophoric activity across pyranine dye encapsulated pH 7 egg yolk L-alpha-phosphatidylcholine-based liposomal membranes assessed as bromide ion transport by measuring induction of pH discharge at 1.95 x 10^-3 mol% after 20 mins in presence of NaBr loaded external vesicles by fluorescence method
[5] = Ionophoric activity across pyranine dye encapsulated pH 7 egg yolk L-alpha-phosphatidylcholine-based liposomal membranes assessed as chloride ion transport by measuring initial rate constant for induction of pH discharge at 1.95 x 10^-3 mol% after 20 mins in presence of NaCl loaded external vesicles by fluorescence method (reference value: 5.03 +/- 1.02 10^-3/min)
[6] = Ionophoric activity across pyranine dye encapsulated pH 7 POPC-cholesterol-based liposomal membranes assessed as chloride ion transport by measuring induction of pH discharge at 7.81 x 10^-3mol% after 20 mins in presence of NaCl loaded external vesicles by fluorescence method
HeLa [7] = test: Induction of apoptosis in human HeLa cells assessed as chromatin fragmentation at 2.5 uM after 24 hrs by Hoechst 33342 staining based fluorescence microscopic analysis; type: functional, cell-based
[8] = Ionophoric activity across pyranine dye encapsulated pH 7 egg yolk L-alpha-phosphatidylcholine-based liposomal membranes assessed as chloride ion transport by measuring initial rate constant for induction of pH discharge at 7.81 x 10^-3 mol% after 20 mins in presence of NaCl loaded external vesicles by fluorescence method (reference value: 5.03 +/- 1.02 10^-3/min)
[9] = Ionophoric activity across pyranine dye encapsulated pH 7 egg yolk L-alpha-phosphatidylcholine-based liposomal membranes assessed as chloride ion transport by measuring induction of pH discharge at 1.95 x 10^-3 mol% after 20 mins in presence of RbCl loaded external vesicles by fluorescence method
HeLa [10] = test: Ionophoric activity across human HeLa cells assessed as chloride ion efflux up to 10 uM after 2 hrs by MQAE dye based fluorescence assay; type: cell-based
A549 [11] = test: Cytotoxicity against human A549 cells assessed as reduction in cell viability at 50 uM after 48 hrs by MTT assay relative to control; type: functional; conditions: A549, 48 h
[12] = Ionophoric activity across pyranine dye encapsulated pH 7 egg yolk L-alpha-phosphatidylcholine-based liposomal membranes assessed as chloride ion transport by measuring induction of pH discharge at 1.95 x 10^-3 mol% after 20 mins in presence of NaCl loaded external vesicles by fluorescence method
HeLa [13] = test: Induction of apoptosis in human HeLa cells assessed as formation of apoptotic bodies at 2.5 uM after 24 hrs by Hoechst 33342 staining based fluorescence microscopic analysis; type: functional, cell-based
A549 [14] = test: Cytotoxicity against human A549 cells assessed as reduction in cell viability after 48 hrs by MTT assay; type: functional, cell-based; conditions: A549, 48 h
[15] = Ionophoric activity across lucigenin probe encapsulated pH 7 egg yolk L-alpha-phosphatidylcholine-based large unilamellar vesicles loaded with Na2SO4 assessed as chloride ion efflux at 7.81 x 10^-3mol% after 20 mins in presence of NaCl/Na2SO4 loaded external vesicles by fluorescence method
HeLa [16] = test: Cytotoxicity against human HeLa cells assessed as reduction in cell viability after 48 hrs by MTT assay; type: functional, cell-based
[17] = Ionophoric activity across pyranine dye encapsulated pH 7 egg yolk L-alpha-phosphatidylcholine-based liposomal membranes assessed as chloride ion transport by measuring induction of pH discharge at 1.95 x 10^-3 mol% after 20 mins in presence of KCl loaded external vesicles by fluorescence method
[18] = Ionophoric activity across pyranine dye encapsulated pH 7 egg yolk L-alpha-phosphatidylcholine-based liposomal membranes assessed as chloride ion transport by measuring initial rate constant for induction of pH discharge at 4.88 x 10^-4 mol% after 20 mins in presence of NaCl loaded external vesicles by fluorescence method (reference value: 5.03 +/- 1.02 10^-3/min)
[19] = Ionophoric activity across pyranine dye encapsulated pH 7 egg yolk L-alpha-phosphatidylcholine-based liposomal membranes assessed as chloride ion transport by measuring induction of pH discharge after 20 mins in presence of NaCl loaded external vesicles by fluorescence method relative to m-Bimbe
HeLa [20] = test: Ionophoric activity across human HeLa cells assessed as chloride ion efflux at 10 uM after 3 hrs by acridine orange staining based fluorescence microscopic analysis; type: cell-based
HeLa [21] = test: Induction of apoptosis in human HeLa cells assessed as chromatin condensation at 2.5 uM after 24 hrs by Hoechst 33342 staining based fluorescence microscopic analysis; type: functional, cell-based
MCF7 = test: Cytotoxicity against human MCF7 cells assessed as reduction in cell viability up to 10 uM after 12 hrs in presence of chloride by MTT assay; type: functional, cell-based
HepG2 = test: Cytotoxicity against human HepG2 cells assessed as reduction in cell viability at 50 uM after 48 hrs by MTT assay relative to control; type: functional; conditions: HepG2, 48 h
HeLa [22] = test: Cytotoxicity against human HeLa cells assessed as reduction in cell viability at 50 uM after 48 hrs by MTT assay relative to control; type: functional
[23] = Ionophoric activity across pyranine dye encapsulated pH 7 egg yolk L-alpha-phosphatidylcholine-based liposomal membranes assessed as chloride ion transport by measuring initial rate constant for induction of pH discharge at 9.77 x 10^-4 mol% after 20 mins in presence of NaCl loaded external vesicles by fluorescence method (reference value: 5.03 +/- 1.02 10^-3/min)
HeLa [24] = test: Induction of apoptosis in human HeLa cells assessed as formation of bean shaped nuclei at 2.5 uM after 24 hrs by Hoechst 33342 staining based fluorescence microscopic analysis; type: functional, cell-based
HeLa [25] = test: Cytotoxicity against human HeLa cells assessed as reduction in cell viability up to 10 uM after 12 hrs in absence of chloride by MTT assay; type: functional, cell-based
[26] = Ionophoric activity across pyranine dye encapsulated pH 7 egg yolk L-alpha-phosphatidylcholine-based liposomal membranes assessed as chloride ion transport by measuring induction of pH discharge at 1.95 x 10^-3 mol% after 20 mins in presence of CsCl loaded external vesicles by fluorescence method
[27] = Ionophoric activity across lucigenin probe encapsulated pH 7 egg yolk L-alpha-phosphatidylcholine-based large unilamellar vesicles loaded with Na2SO4 assessed as chloride ion efflux at 7.81 x 10^-3mol% after 20 mins in presence of NaCl loaded external vesicles by fluorescence method

With O=[N+]([O-])c1cc(-c2nc3ccc(C(F)(F)F)cc3[nH]2)cc(-c2nc3ccc(C(F)(F)F)cc3[nH]2)c1 the Activity [1] was “inactive”, the K [2] was 1.33 ×10⁻¹ /min and the Activity [3] was “inactive”. The Activity [4] was “inactive”, the K [5] was 8.14 ×10⁻² /min and the Activity [6] was “inactive”. The Activity (HeLa [7]) was “Active”, the K [8] was 1.87 ×10⁻¹ /min and the Activity [9] was “Active”. For the same molecule, the Activity (HeLa [10]) was “Active”, the inhibition at 50 µM (A549 [11]) was 100% and the Activity [12] was “Active”. For the same molecule, the Activity (HeLa [13]) was “Active”, the IC50 (A549 [14]) was 3800 to 3900 nM and the Activity [15] was “inactive”. For the same molecule, the IC50 (HeLa [16]) was 1900 nM, the Activity [17] was “Active” and the K [18] was 2.11 ×10⁻² /min. The fold change (FC) [19] was 1720, the Activity (HeLa [20]) was “Active” and the Activity (HeLa [21]) was “Active”. The Activity (MCF7) was “Active”, the inhibition at 50 µM (HepG2) was 101% and the inhibition at 50 µM (HeLa [22]) was 94.9%. The K [23] was 4.08 ×10⁻² /min, the Activity (HeLa [24]) was “Active” and the Activity (HeLa [25]) was “Active”. For the same molecule, the Activity [26] was “Active” and the Activity [27] was “inactive”.
